Experimental data: the NIST ThermoML archive (doi:10.1021/acs.jced.6b01013)

Experiment: xn = mol fraction of the nth substance listed
Conditions: 100 kPa, Liquid, Pycnometric method

CC(=O)OCC[N+](C)(C)C.[Cl-] [acetylcholine chloride] + COc1ccccc1O
mass density [kg/m3]
Conditions	293.15 K	303.15 K	313.15 K	323.15 K
x2 = 0.75	1149.6	1146.1	1139.8	1133.8
x2 = 0.8	1149.3	1144.8	1138.1	1131.7
x2 = 0.83	1152.7	1148.1	1142.5	1135.1

CCNCC.Cl [diethylammonium chloride] + COc1ccccc1O
mass density [kg/m3]
Conditions	293.15 K	303.15 K	313.15 K	323.15 K
x2 = 0.75	1095.4	1093.1	1083.7	1075.8
x2 = 0.8	1102.4	1098.3	1089.8	1084.1
x2 = 0.83	1106.1	1103.5	1093.7	1083.5

COc1ccccc1O [2-methoxyphenol] + C[N+](C)(C)CCO.[Cl-]
mass density [kg/m3]
Conditions	293.15 K	303.15 K	313.15 K	323.15 K
x1 = 0.75	1153.3	1147.5	1141.2	1134.1
x1 = 0.8	1155.6	1147.7	1140.6	1132.4
x1 = 0.83	1149.7	1143.4	1136.2	1128
